How the values were obtained:
Type in all cases: physicochemical
[1] = Sticking property due to electrostatic charge during pulverization by a mortar; details: collection by stainless spatula
Experimental: The inside of a 300 mL reaction flask (made of heat resistant glass) was replaced with nitrogen, and thereafter 40 g of commercially available reduced coenzyme Q10 (produced by Kaneka Corporation, conventionally known reduced coenzyme Q10 crystal) and 60 g of n-hexane were charged thereto and warmed to 40° C. with stirring to completely dissolve the reduced coenzyme Q10 in n-hexane. The solution was cooled to 25° C. at a cooling rate of 10° C./hour, then kept at 25° C. for 96 hours while being continuously stirred, and subjected to filtration and drying (drying under reduced pressure, 20 to 40° C.) to provide a crystal. From the result of analysis by DSC, the crystal was confirmed to have an endothermic peak indicating melting at 54.2° C. during temperature rise at a rate of 5° C./min, and an endothermic peak indicating melting at 51.6° C. during temperature rise at a rate of 1° C./min. In addition, as the result of analysis by powder X-ray diffraction, characteristic peaks at diffraction angles (2θ±0.2°) of 11.50°, 18.26°, 19.30°, 22.30°, 23.00° and 33.14° were observed as shown in FIG. 1. […] From the above analysis results, it was confirmed that the reduced coenzyme Q10 crystal obtained in the present Example was in a different crystal form from the conventionally known reduced coenzyme Q10 crystal. […]

[2] = Solubility of the crystal in hexane; details: n-hexane, temperature of 25° C.
Experimental: The inside of a 300 mL reaction flask (made of heat resistant glass) was replaced with nitrogen, and thereafter 40 g of commercially available reduced coenzyme Q10 (produced by Kaneka Corporation, conventionally known reduced coenzyme Q10 crystal) and 60 g of n-hexane were charged thereto and warmed to 40° C. with stirring to completely dissolve the reduced coenzyme Q10 in n-hexane. The solution was cooled to 25° C. at a cooling rate of 10° C./hour, then kept at 25° C. for 96 hours while being continuously stirred, and subjected to filtration and drying (drying under reduced pressure, 20 to 40° C.) to provide a crystal. From the result of analysis by DSC, the crystal was confirmed to have an endothermic peak indicating melting at 54.2° C. during temperature rise at a rate of 5° C./min, and an endothermic peak indicating melting at 51.6° C. during temperature rise at a rate of 1° C./min. In addition, as the result of analysis by powder X-ray diffraction, characteristic peaks at diffraction angles (2θ±0.2°) of 11.50°, 18.26°, 19.30°, 22.30°, 23.00° and 33.14° were observed as shown in FIG. 1. […] From the above analysis results, it was confirmed that the reduced coenzyme Q10 crystal obtained in the present Example was in a different crystal form from the conventionally known reduced coenzyme Q10 crystal. The solubility of the resulting crystal in hexane was measured, and found to be 9% by weight at a temperature of 25° C.

[3] = Solubility of the crystal in ethanol; details: temperature of 30° C.

| Compound | sticking property due to electrostatic charge [1] | solubility in hexane [2] | solubility in ethanol [3] |
| --- | --- | --- | --- |
| COc1c(O)c(C)c(C/C=C(\C)CC/C=C(\C)CC/C=C(\C)CC/C=C(\C)CC/C=C(\C)CC/C=C(\C)CC/C=C(\C)CC/C=C(\C)CC/C=C(\C)CCC=C(C)C)c(O)c1OC [Comparative Example 1, reduced coenzyme Q10] | exhibited remarkable sticking property | 36.5 % by weight |  |
| COc1c(O)c(C)c(C/C=C(\C)CC/C=C(\C)CC/C=C(\C)CC/C=C(\C)CC/C=C(\C)CC/C=C(\C)CC/C=C(\C)CC/C=C(\C)CC/C=C(\C)CCC=C(C)C)c(O)c1OC [Example 1, reduced coenzyme Q10] | did not exhibit sticking property | 9 % by weight |  |
| COc1c(O)c(C)c(C/C=C(\C)CC/C=C(\C)CC/C=C(\C)CC/C=C(\C)CC/C=C(\C)CC/C=C(\C)CC/C=C(\C)CC/C=C(\C)CC/C=C(\C)CCC=C(C)C)c(O)c1OC [conventionally known reduced coenzyme Q10 crystal] |  | ≥ 30 % by weight | ≥ 4 % by weight |
| COc1c(O)c(C)c(C/C=C(\C)CC/C=C(\C)CC/C=C(\C)CC/C=C(\C)CC/C=C(\C)CC/C=C(\C)CC/C=C(\C)CC/C=C(\C)CC/C=C(\C)CCC=C(C)C)c(O)c1OC [reduced coenzyme Q10 crystal of the present invention] |  | ≤ 15 % by weight | less than 4 % by weight |

Source: US9556098B2, “Reduced coenzyme Q10 crystal having excellent stability” (KANEKA CORPORATION, priority 2011, dated 2017)
